Experimental data published in patent US11091749B2, “Deimmunized lysostaphin and methods of use” (TRUSTEES OF DARTMOUTH COLLEGE, priority 2014, dated 2021).
Like-named read-outs stand apart in the source and are kept apart here. One block for each substance: values may come before it. Where no end group is shown, it is not given here.

Key:
Assay in all cases: MHC II competition binding assay
[1] = target: T1, DRB1*1501 (Homo sapiens, UniProt P01903+P01911)
T1 construct: purchased Benaroya Research Institute (Seattle, Wash.)
Method: MHC Binding Assays. […] Briefly, 100 nM biotinylated control peptides composed of known peptide antigens for each MHC II allele were incubated in polypropylene 384-well plates with 50 nM purified recombinant MHC II protein and serial dilutions of LST or variant peptide fragments (100 μM to 10 nM). Peptide-MHC II complexes were captured from equilibrated solutions using the conformation specific anti-HLA-DR antibody L243 coated on high binding ELISA plates. Bound control peptide was quantified using the DELFIA streptavidin-Europium conjugate and time resolved fluorescence (SpectraMax Gemini Fluorescence Microplate Reader).

[2] = target: T2, DRB1*0301 (Homo sapiens, UniProt P01903+P01911, A100K/A102G/A103R/A169T/F55Y/I96L/K41T/L162R/M171V/P40S/Q125H/Q178H/Q39Y/R42S/S66N/T106N/T262R/W38E/Y61H)
T2 construct: purchased Benaroya Research Institute (Seattle, Wash.)
Method: (§1) MHC Binding Assays. MHC II competition binding assays were performed using a 384-well high throughput assay as previously described (Salvat, et al. (2014) supra). Binding assays were performed for the eight alleles: DRB1*0101, 0301, 0401, 0701, 0801, 1101, 1301, and 1501. Briefly, 100 nM biotinylated control peptides composed of known peptide antigens for each MHC II allele were incubated in polypropylene 384-well plates with 50 nM purified recombinant MHC II protein and serial dilutions of LST or variant peptide fragments (100 μM to 10 nM). Peptide-MHC II complexes were captured from equilibrated solutions using the conformation specific anti-HLA-DR antibody L243 coated on high binding ELISA plates. Bound control peptide was quantified using the DELFIA streptavidin-Europium conjugate and time resolved fluorescence (SpectraMax Gemini Fluorescence Microplate Reader).

[3] = target: DRB1*0701 (Homo sapiens, UniProt P01903+P01911, A100R/A102G/A103Q/D57E/D86V/E43K/F76Y/K127E/L162R/M171V/P40G/Q125H/Q99D/R33Q/R42Y/R54Q/S133A/S66F/T210M/V115G/Y107V/Y59L/Y89S)
Method: as §1

[4] = target: DRB1*1301 (Homo sapiens, UniProt P01903+P01911, A100E/A169T/K41T/L162R/M171V/P40S/Q125H/Q178H/Q39Y/Q99D/R42S/S66N/T262R/W38E/Y61H)
Method: as §1

[5] = target: DRB1*0801 (Homo sapiens, UniProt P01903+P01911, A100R/A103L/A169T/D86S/F76Y/H45Y/I96F/K41T/L162R/M171V/P40S/Q125H/Q178H/Q39Y/Q99D/R218S/R42G/S66Y/V115G/W38E)
Method: as §1

[6] = target: T3, DRB1*0401 (Homo sapiens, UniProt P01903+P01911, A100K/A169T/F76Y/I96L/K127E/L162R/M171V/N62H/P40V/Q125Y/R42H/S133A/S149N/S66Y/V115G/V209L/W38E)
T3 construct: purchased Benaroya Research Institute (Seattle, Wash.)
Method: as §1

[7] = target: T4, DRB1*0101 (Homo sapiens, UniProt P01903+P01911, A100R/D57E/F55L/F60I/F76Y/I96L/L162R/M171V/P40L/Q125E/R42F/V115G/Y59C)
T4 construct: purchased Benaroya Research Institute (Seattle, Wash.)
Method: as §1

[8] = target: DRB1*1101 (Homo sapiens, UniProt P01903+P01911, A100R/A169T/A87E/I96F/K41T/L162R/M171V/P40S/Q125H/Q178H/Q39Y/Q99D/R42S/S66Y/T262R/V115G/W38E)
Method: as §1

[9] = synthetic peptide competing with biotinylated control peptide, read-out: IC50 1501
[10] = synthetic peptide competing with biotinylated control peptide, read-out: IC50 0301
[11] = synthetic peptide competing with biotinylated control peptide, read-out: IC50 0701
[12] = synthetic peptide competing with biotinylated control peptide, read-out: IC50 0401
[13] = synthetic peptide competing with biotinylated control peptide, read-out: IC50 0101
[14] = synthetic peptide competing with biotinylated control peptide, read-out: IC50 0801

IC50 ([1]; DRB1*1501, read-out: IC50): < 0.01 µM
IC50 ([2]; DRB1*0301, read-out: IC50): > 250 µM
IC50 ([4]; DRB1*1301, read-out: IC50): > 250 µM
IC50 ([5]; DRB1*0801, read-out: IC50): > 250 µM
IC50 ([7]; DRB1*0101, read-out: IC50): < 0.01 µM
Substance: HLHFQRMVNSFGNPTAQ [Peptide S124G]

fold decrease in binding vs wild-type peptide, 0701 [3]: two-fold
fold decrease in binding vs wild-type peptide, 0801 [5]: approximately five-fold
fold reduction in binding vs wild-type peptide, 1101 [8]: ten-fold
Substance: Leu83Met: full-length lysostaphin single point mutant
binder class DRB1*1501 [1]: moderate (moderate if an IC50 value was in the 0.1-1 μM range)
binder class DRB1*0301 [2]: non-binder (All peptides above 10 μM were considered non-binders)
binder class DRB1*0701 [3]: moderate (moderate if an IC50 value was in the 0.1-1 μM range)
binder class DRB1*1301 [4]: weak (weak if an IC50 value was in the 1-10 μM range)
binder class DRB1*0101 [7]: weak (weak if an IC50 value was in the 1-10 μM range)

fold decrease in binding vs wild-type peptide, 0101 [7]: two-fold
Substance: Lys46His: full-length lysostaphin single point mutant

IC50 [1, 9]: > 250 µM
IC50 [2, 10]: > 250 µM
IC50 [3, 11]: > 250 µM
IC50 [5, 14]: > 250 µM
IC50 [6, 12]: > 250 µM
IC50 [7, 13]: > 250 µM
Substance: SAQWLNHYKKGYGYG [Design N13H]

binder class DRB1*1501 [1]: weak/non-binder
binder class DRB1*0101 [7]: weak or non-binder
Substance: Tyr93His/Lys95Glu/Ile99Gln: cluster 4 synthetic peptide with three mutations (Table 15) (DHVEAGQQIGWSGSTGY)

Further lines, the substance ahead of its results:

Substance: HLHFQRMVGDFSNPTAQ [Peptide 21_22]
IC50 [1]: < 0.01 µM
IC50 [2]: 77.4 µM
IC50 [3]: > 250 µM
IC50 [4]: > 250 µM
IC50 [5]: 210 µM
IC50 [6]: < 0.01 µM
IC50 [7]: < 0.01 µM
IC50 [8]: 28.5 µM

Substance: HLHFQRMVGSFSNPTAQ [Peptide N121G]
IC50 [1]: < 0.01 µM
IC50 ([2]; DRB1*0301, read-out: IC50): > 250 µM
IC50 ([3]; DRB1*0701, read-out: IC50): 17.4 µM
IC50 ([4]; DRB1*1301, read-out: IC50): > 250 µM
IC50 ([5]; DRB1*0801, read-out: IC50): > 250 µM
IC50 ([6]; DRB1*0401, read-out: IC50): 6.13 µM
IC50 ([7]; DRB1*0101, read-out: IC50): < 0.01 µM
IC50 ([8]; DRB1*1101, read-out: IC50): 6.41 µM

Substance: HLHFQRMVNDFSNPTAQ [Peptide S122D]
IC50 [1]: < 0.01 µM
IC50 [2]: 9.42 µM
IC50 [3]: > 250 µM
IC50 [4]: > 250 µM
IC50 [5]: 150 µM
IC50 [6]: < 0.01 µM
IC50 [7]: < 0.01 µM
IC50 [8]: < 0.01 µM

Substance: HLHFQRMVNSFSNPTAQ [Design C5WT]
IC50 ([1]; DRB1*1501, read-out: IC50): < 0.01 µM
IC50 ([2]; DRB1*0301, read-out: IC50): > 250 µM
IC50 ([3]; DRB1*0701, read-out: IC50): 15.2 µM
IC50 ([4]; DRB1*1301, read-out: IC50): > 250 µM
IC50 ([5]; DRB1*0801, read-out: IC50): 22 µM
IC50 ([6]; DRB1*0401, read-out: IC50): 0.05 µM
IC50 ([8]; DRB1*1101, read-out: IC50): < 0.01 µM

Substance: HLHFQTMVNDFGNPTAQ [Peptide 182224]
IC50 [1]: 0.42 µM
IC50 [2]: 133 µM
IC50 [3]: > 250 µM
IC50 [4]: > 250 µM
IC50 [5]: > 250 µM
IC50 [6]: 7.52 µM
IC50 [7]: 7.43 µM
IC50 [8]: 14.1 µM

Substance: HLHFQTMVNDFSNPTAQ [Peptide 18_22]
IC50 [1]: < 0.01 µM
IC50 [2]: 28.2 µM
IC50 [3]: 111 µM
IC50 [4]: > 250 µM
IC50 [5]: > 250 µM
IC50 [6]: < 0.01 µM
IC50 [7]: < 0.01 µM
IC50 [8]: < 0.01 µM

Substance: HLHFQTMVNSFSNPTAQ [Peptide R118T]
IC50 [1]: < 0.01 µM
IC50 [2]: 68.4 µM
IC50 [3]: 23.1 µM
IC50 [4]: > 250 µM
IC50 [5]: 57.7 µM
IC50 [6]: < 0.01 µM
IC50 [7]: < 0.01 µM
IC50 [8]: < 0.01 µM

Substance: SAQWLGNYKKGYGYG [Design N12G]
IC50 [1, 9]: > 250 µM
IC50 [2, 10]: > 250 µM
IC50 [3, 11]: > 250 µM
IC50 ([4]; synthetic peptide competing with biotinylated control peptide, read-out: IC50 1301): > 250 µM
IC50 [6, 12]: > 250 µM
IC50 [7, 13]: < 0.01 µM

Substance: SAQWLNNYKKGYGYG [Design C1WT]
IC50 [1, 9]: 101 µM
IC50 [2, 10]: > 250 µM
IC50 [3, 11]: > 250 µM
IC50 [5, 14]: 13.7 µM
IC50 [6, 12]: > 250 µM

Substance: Tyr93His/Lys95Glu: cluster 4 synthetic peptide with Tyr93His and Lys95Glu (Table 15) (DHVEAGQIIGWSGSTGY)
binder class DRB1*0101 [7]: moderate (moderate if an IC50 value was in the 0.1-1 μM range)
